Changes are numbered by the printed parent chain. “And” between values parts separate entries of the source, which are not always exact repeats. Equal values may be shown once.
How the values were obtained:
[1] = biological target: T1, hTA1 V184P (Homo sapiens, UniProt Q96RJ0, V184P); test: GloSensor cAMP accumulation assay, V184P mutant; assay type: cell-based; conditions: for cAMP accumulation response, single replicate values (source data, Supplementary Figure 5): hTA1 V184P (N=2), log[Compound]
T1 construct: expressed in transfected cells; host or cells: HEK293T
T1 sequence (Q96RJ0 1-339 V184P): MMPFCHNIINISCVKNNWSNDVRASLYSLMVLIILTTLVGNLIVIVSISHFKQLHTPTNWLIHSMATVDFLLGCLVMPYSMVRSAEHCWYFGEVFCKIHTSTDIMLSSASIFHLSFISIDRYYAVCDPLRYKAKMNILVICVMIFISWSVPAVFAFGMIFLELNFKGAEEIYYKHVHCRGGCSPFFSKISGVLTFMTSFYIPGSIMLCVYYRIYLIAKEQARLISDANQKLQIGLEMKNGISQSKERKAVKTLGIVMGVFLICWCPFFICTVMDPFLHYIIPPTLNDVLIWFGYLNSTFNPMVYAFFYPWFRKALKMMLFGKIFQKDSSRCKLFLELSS

[2] = biological target: T2, hTA1 C96S (Homo sapiens, UniProt Q96RJ0, C96S); test: GloSensor cAMP accumulation assay, C96S mutant; assay type: cell-based; conditions: C96S, log[Compound], single replicates (N=2)
T2 construct: expressed in transfected cells; host or cells: HEK293T
T2 sequence (Q96RJ0 1-339 C96S): T1 sequence (Q96RJ0 1-339 V184P) with C96S, P184V

NCCc1ccc(Oc2ccc(O)cc2)c(I)c1 [T1AM, 3-iodothyronamine]
Span ± SEM (Emax normalized to β-PEA) ([1]; V184P, n=2): 70.26
pEC50 ± SEM ([1]; V184P, n=2): 6.27 ± 0.05
EC50 ([1]; V184P, n=2, read-out: EC50): 539 nM
cAMP accumulation response, single replicate values (source data, Supplementary Figure 5) ([1]; M = -5): 47.1774 and 43.1039 and 48.2443 and 102.347 and 62.5054 and 96.189
cAMP accumulation response, single replicate values (source data, Supplementary Figure 5) ([1]; M = -5.522): 32.0474 and 39.1275 and 36.5088 and 86.7693 and 72.5115 and 76.5066
cAMP accumulation response, single replicate values (source data, Supplementary Figure 5) ([1]; M = -6): 40.0973 and 27.683 and 25.5492 and 73.6844 and 54.6984 and 67.6001
cAMP accumulation response, single replicate values (source data, Supplementary Figure 5) ([1]; M = -6.522): 14.9776 and 12.068 and 13.8138 and 37.1052 and 29.2983 and 35.6391
cAMP accumulation response, single replicate values (source data, Supplementary Figure 5) ([1]; M = -7): 5.085 and 5.182 and 3.9211 and 15.2237 and 21.0881 and 16.0667
cAMP accumulation response, single replicate values (source data, Supplementary Figure 5) ([1]; M = -7.522): -0.4433 and -1.4132 and 0.1386 and 3.678 and 3.238 and 3.861
cAMP accumulation response, single replicate values (source data, Supplementary Figure 5) ([1]; M = -8): -0.9283 (2×) and -1.51 and 5.3642 and 2.908 and 3.861
cAMP accumulation response, single replicate values (source data, Supplementary Figure 5) ([1]; M = -8.522): -1.316 and -1.607 and -1.51 and 1.809 and 2.2854 and 1.442
cAMP accumulation response, single replicate values (source data, Supplementary Figure 5) ([1]; M = -9): -1.704 (2×) and -1.801 and 1.442 and -0.5735 and 0.4894
cAMP accumulation response, single replicate values (source data, Supplementary Figure 5) ([1]; M = -9.522): -1.4132 and -1.801 and -1.607 and 0.3795 and -0.4269 and 0.5994
cAMP accumulation response, single replicate values (source data, Supplementary Figure 5) ([1]; M = -10): -1.51 and -1.801 (2×) and 1.149 and -0.207 and 0.01294
cAMP accumulation response, single replicate values (source data, Supplementary Figure 5) ([1]; M = -10.522): -1.316 and -1.607 (2×) and -0.2803 and 0.08625 and -1.233
cAMP accumulation response, single replicate values (source data, Supplementary Figure 5) ([1]; M = -11): -1.801 and -1.122 and -1.4132 and 0.746 and 0.7093 and 0.1596
cAMP accumulation response, single replicate values (source data, Supplementary Figure 5) ([1]; M = -11.522): -1.316 and -1.025 and -1.4132 and 0.636 and 1.039 and -0.3169
cAMP accumulation response, single replicate values (source data, Supplementary Figure 5) ([1]; M = -12): -1.801 and -1.122 and -1.219 and -0.4635 and 0.9659 and -0.1337
cAMP accumulation response, single replicate values (source data, Supplementary Figure 5) ([1]; M = -12.522): -1.219 and -0.7343 and -1.607 and 0.0496 and -0.3536 and -0.6468
ΔpEC50 values (each mutant value - WT average), Mean ([1]; hTA1 V184P mutant minus WT average): 0.071 and 0.2071
pEC50 values, Mean ([1]; hTA1 V184P mutant, Figure 3B source data, each grid row a separate experiment, 3 replicates): 6.2 and 6.336
Emax values, Mean ([1]; hTA1 V184P mutant, β-PEA set to 100, each grid row a separate experiment, 3 replicates): 49.3182 and 91.2084
Normalized Luminescence Counts ([2]; M = -5): -4.527 and 0.08646 and -0.5726 and 12.7948 and 5.048 and 3.112
Normalized Luminescence Counts ([2]; M = -5.522): -1.232 and -3.209 (2×) and 24.4145 and 1.175 and -2.698
Normalized Luminescence Counts ([2]; M = -6): -1.891 and -5.845 and -6.504 and 30.2243 and -2.698 and -0.7614
Normalized Luminescence Counts ([2]; M = -6.522): -5.186 (2×) and -5.845 and -10.4444 and -0.7614 and -2.698
Normalized Luminescence Counts ([2]; M = -7): -3.209 and -6.504 and -1.891 and -14.3176 and -8.508 and -10.4444
Normalized Luminescence Counts ([2]; M = -7.522): -1.891 and -5.186 (2×) and -4.6346 and 3.112 and -6.571
Normalized Luminescence Counts ([2]; M = -8): 0.08646 and -3.868 and -1.232 and 14.7315 and 18.6047 (2×)
Normalized Luminescence Counts ([2]; M = -8.522): -1.891 and -1.232 (2×) and 14.7315 (2×) and 8.922
Normalized Luminescence Counts ([2]; M = -9): -1.232 and -1.891 (2×) and 30.2243 and 37.9707 and 3.112
Normalized Luminescence Counts ([2]; M = -9.522): -3.209 and -1.891 and -1.232 and 16.6681 and 5.048 and 20.5413
Normalized Luminescence Counts ([2]; M = -10): 2.064 and -0.5726 and 0.7455 and -0.7614 and -4.6346 and -6.571
Normalized Luminescence Counts ([2]; M = -10.522): -1.891 and -3.868 and 0.08646 and 1.175 and -6.571 and -4.6346
